The target of one test is T1, mouse NPSR (Mus musculus, UniProt Q8BZP8).
T1 sequence (Q8BZP8 1-371): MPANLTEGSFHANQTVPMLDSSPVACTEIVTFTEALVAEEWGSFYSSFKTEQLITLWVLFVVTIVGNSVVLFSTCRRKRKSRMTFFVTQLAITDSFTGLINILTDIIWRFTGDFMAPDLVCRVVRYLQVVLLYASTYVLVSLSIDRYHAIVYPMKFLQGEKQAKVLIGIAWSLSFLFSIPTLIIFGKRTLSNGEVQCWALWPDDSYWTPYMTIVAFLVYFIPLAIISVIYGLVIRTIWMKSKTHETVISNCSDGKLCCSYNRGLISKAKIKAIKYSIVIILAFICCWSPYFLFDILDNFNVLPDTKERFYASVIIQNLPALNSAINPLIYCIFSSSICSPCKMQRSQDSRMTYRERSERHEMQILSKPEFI
The test is described as follows: Calcium mobilization in HEK293mNPSR cells, agonist mode. Format: cell-based.

The next test relates to NPSR. As to conditions: cited from earlier work.
In a further test the test system is mouse vertical activity. Conditions: at doses able to counteract the stimulatory effect of exogenously applied NPS; cited from earlier work.

Where two headings read alike, the source gives them in different places. Where no end group is shown, it is not given here.

With “[Trp^5]NPS (SFRNWVGTGMKKTSFQRAKS; Neuropeptide S; UniProt P0C0P6 70-89, looked up, variant G5W) [Compound 2]”, the “Agonist effect at 10 μM (crc incomplete)” value with mouse NPSR (10 μM, % over the baseline, HEK293mNPSR) came to 30%. On to [Ala^3]NPS, for which the “Pharmacological profile at NPSR” value in the test on NPSR (ref 17) is reported as “partial agonist”. For “SFRNGVGTGMKKTSFQRAKS [NPS, Neuropeptide S]”, the Emax on mouse NPSR (read-out: Agonist Emax ± sem, SEM) turned out to be 295 ± 22%. Consider [Aib^5]NPS, for which the “Pharmacological profile at NPSR” value in the test on NPSR (ref 15) is recorded as “partial agonists”. For the molecule `O=C(NCc1ccc(F)cc1)N1CCN2C(=O)OC(c3ccccc3)(c3ccccc3)C2C1` (stereo not drawn) [SHA 68, 3-Oxo-1,1-diphenyl-tetrahydro-oxazolo[3,4-a]pyrazine-7-carboxylic acid 4-fluoro-benzylamide], in the test with NPSR (ref 18), the “Pharmacological profile at NPSR” value was “pure antagonist”. For the same molecule, the “Effect per se on mouse vertical activity” value with mouse vertical activity is listed as “selective reduction of mouse vertical activity”.

For the molecule [D-Ala^5]NPS, in the test on NPSR (ref 15), the “Pharmacological profile at NPSR” value is listed as “partial agonist”. With “[Ala^5]NPS (SFRNAVGTGMKKTSFQRAKS; Neuropeptide S; UniProt P0C0P6 70-89, looked up, variant G5A)”, the “Pharmacological profile at NPSR” value in the test with NPSR (ref 6, 15) is reported as “high potency NPSR full agonist”; in the test with NPSR (ref 15), “full agonist”.

Source of the values: PMC2653091 (Journal of medicinal chemistry, 2009).
